IC50 and MIC data for 24 compounds are collected here from patent US6821980B1, “Substituted 5-benzyl-2,4-diaminopyrimidines” (Basilea Pharmaceutica AG, priority 1999, dated 2004).

For test [1], the target named is T1, purified DHFR of strain Sp1/1 of Streptococcus pneumoniae (Streptococcus pneumoniae serotype 4, UniProt Q54801).
T1 sequence (Q54801 1-168 I100L): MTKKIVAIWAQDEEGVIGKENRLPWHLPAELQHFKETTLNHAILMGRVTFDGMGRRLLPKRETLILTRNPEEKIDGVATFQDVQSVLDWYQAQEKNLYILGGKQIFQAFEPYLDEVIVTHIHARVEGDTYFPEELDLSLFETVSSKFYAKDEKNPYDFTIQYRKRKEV
In kind it is biochemical. The following applies: IC50 against purified DHFR of strain Sp1/1.

For test [2], the system named is Staphylococcus aureus 101. The experiment in a line: MIC against Staphylococcus aureus 101. In kind it is cell-based. The following applies: Staphylococcus aureus 101, MRSA- and trimethoprim-resistant, clinical isolate, read-out: MIC Sa101.
Test [3] deals with Streptococcus pneumoniae 1/1. The experiment in a line: MIC against Streptococcus pneumoniae 1/1. The following applies: Streptococcus pneumoniae 1/1, trimethoprim- and penicillin-resistant, serotype 6, clinical isolate, read-out: MIC Sp1/1. In kind it is cell-based.
In test [4] the target is purified DHFR of strain 157/4696 of Staphylococcus aureus (Staphylococcus aureus, UniProt P13955). The test can be described thus: biochemical.
Chain of purified DHFR of strain 157/4696 of Staphylococcus aureus (P13955 whole entry): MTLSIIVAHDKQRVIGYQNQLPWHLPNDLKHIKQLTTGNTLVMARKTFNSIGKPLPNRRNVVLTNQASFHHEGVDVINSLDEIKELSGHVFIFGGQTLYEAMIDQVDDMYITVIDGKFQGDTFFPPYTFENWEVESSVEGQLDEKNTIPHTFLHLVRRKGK

Structures are written as SMILES. ≈ marks a conversion by molar mass, not a printed value. Like-named read-outs stand apart in the source and are kept apart here.

What is called IC50 is the point on the concentration scale where inhibition reaches its midpoint. A high value points to weaker potency. On to `CCOc1cc(Cc2cnc(N)nc2N)cc(OCC)c1-c1cccc(C#N)c1` [Example 02-u, 4′-(2,4-Diamino-pyrimidin-5-ylmethyl)-2′,6′-diethoxy-biphenyl-3-carbonitrile], for which the figures for the IC50 in test [1] (Table 2) and in test [4] were 180 nM and 4000 nM, respectively. For the same compound, the results for the MIC in test [2] (Table 2) and in test [3] (Table 2) were 8 µg/mL (≈ 20.5 µM) and 4 µg/mL (≈ 10.3 µM), respectively.

On to `CCOc1cc(Cc2cnc(N)nc2N)cc(OCC)c1-c1ccc(N(C)C)cc1` [Example 02-v, 5-(4′-Dimethylamino-2,6-diethoxy-biphenyl-4-ylmethyl)-pyrimidine-2,4-diamine], for which the IC50 in test [1] (Table 2) came out at 110 nM; in test [4], 10000 nM. Further, the MIC in test [2] (Table 2) came out at 8 µg/mL (≈ 19.6 µM); in test [3] (Table 2), 4 µg/mL (≈ 9.82 µM).

On to `CCOc1cc(Cc2cnc(N)nc2N)cc(OCC)c1-c1ccc(CN2CCOCC2)cc1` [Example 02-w, 5-(2,6-Diethoxy-4′-morpholine-4-ylmethyl-biphenyl-4-ylmethyl)-pyrimidine-2,4-diamine], for which the half-maximal inhibitory concentration (IC50) in test [1] (Table 2) was determined as 280 nM; in test [4] it was 2200 nM. In addition, the MIC worked out at 8 µg/mL (≈ 17.3 µM) in test [2] (Table 2) and 4 µg/mL (≈ 8.63 µM) in test [3] (Table 2).

As for `CCOc1cc(Cc2cnc(N)nc2N)cc(OCC)c1-c1ccc2c(c1)OCCO2` [Example 02-x, 5-[4-(2,3-Dihydro-benzo[1,4]dioxin-6-yl)-3,5-diethoxy-benzyl]-pyrimidine-2,4-diamine], the IC50 in test [1] (Table 2) was found to be 75 nM; in test [4], 2330 nM. For the same compound, the results for the MIC in test [2] (Table 2) and in test [3] (Table 2) were 8 µg/mL (≈ 18.9 µM) and 2 µg/mL (≈ 4.73 µM), respectively.

Consider `CCOc1cc(Cc2cnc(N)nc2N)cc(OCC)c1-c1cccc(N(C)C)c1` [Example 02-y, 5-(3′-Dimethylamino-2,6-diethoxy-biphenyl-4-ylmethyl)-pyrimidine-2,4-diamine], for which the half-maximal inhibitory concentration (IC50) in test [1] (Table 2) was 150 nM; in test [4] it was 800 nM. Also, the MIC in test [2] (Table 2) is 8 µg/mL (≈ 19.6 µM); in test [3] (Table 2), 4 µg/mL (≈ 9.82 µM).

Consider `CCOc1cc(Cc2cnc(N)nc2N)cc(OCC)c1-c1cccc([N+](=O)[O-])c1` [Example 02-z, 5-(2,6-Diethoxy-3′-nitro-biphenyl-4-ylmethyl)-pyrimidine-2,4-diamine], for which the half-maximal inhibitory concentration (IC50) in test [1] (Table 2) is 60 nM; in test [4] it was 1600 nM. For the same compound, the MIC in test [2] (Table 2) and in test [3] (Table 2) was 8 µg/mL (≈ 19.5 µM) each time.

For the compound `CCOc1cc(Cc2cnc(N)nc2N)cc(OCC)c1-c1cccc(N)c1` [Example 2a, 5-(3′-Amino-2,6-diethoxy-biphenyl-4-ylmethyl)-pyrimidine-2,4-diamine], the results for the IC50 in test [1] (Table 1) and in test [4] were 30 nM and 750 nM, respectively. For the same compound, the values for the MIC in test [2] (Table 1) and in test [3] (Table 1) were 8 µg/mL (≈ 21.1 µM) and 4 µg/mL (≈ 10.5 µM), respectively.

With `CCOc1cc(Cc2cnc(N)nc2N)cc(OCC)c1-c1ccc(COCC(=O)N2CCOCC2)s1` [Example 03-a, 2-[5-[4-(2,4-Diamino-pyrimidin-5-ylmethyl)-2,6-diethoxy-phenyl]-thiophen-2-ylmethoxyl]-1-morpholin-4-yl-ethanone], the IC50 in test [1] (Table 2) is 31 nM; in test [4], 1800 nM. In addition, the MIC in test [2] (Table 2) amounted to 8 µg/mL (≈ 15.2 µM); in test [3] (Table 2), 2 µg/mL (≈ 3.79 µM).

`CCOc1cc(Cc2cnc(N)nc2N)cc(OCC)c1-c1ccc(COCC(=O)N2CCSCC2)s1` [Example 03-b, 2-[5-[4-(2,4-Diamino-pyrimidin-5-ylmethyl)-2,6-diethoxy-phenyl]-thiophen-2-ylmethoxy]-1-thiomorpholin-4-yl-ethanone]: the IC50 in test [1] (Table 2) came out at 19 nM; in test [4] it was 1600 nM. In addition, the values for the MIC in test [2] (Table 2) and in test [3] (Table 2) were 8 µg/mL (≈ 14.7 µM) and 2 µg/mL (≈ 3.68 µM), respectively.

In the case of `CCOc1cc(Cc2cnc(N)nc2N)cc(OCC)c1-c1ccc(COCC(=O)N2CCCCC2)s1` [Example 03-c, 2-[5-[4-(2,4-Diamino-pyrimidin-5-ylmethyl)-2,6-diethoxy-phenyl]-thionhen-2-ylmethoxy]-1-piperidin-1-yl-ethanone], the half-inhibitory concentration (IC50) is 11 nM in test [1] (Table 2) and 2000 nM in test [4]. Also, the MIC was 8 µg/mL (≈ 15.2 µM) in test [2] (Table 2) and 2 µg/mL (≈ 3.8 µM) in test [3] (Table 2).

On to `CCOc1cc(Cc2cnc(N)nc2N)cc(OCC)c1-c1cc(C)nc(C)c1` [Example 03-d, 5-[4-(2,6-Dimethyl-pyridin-4-yl)-3,5-diethoxy-benzyl]-pyrimidine-2,4-diamine], for which the concentration for half-maximal inhibition (IC50) in test [1] (Table 2) was found to be 340 nM; in test [4] it was 6000 nM. In addition, the MIC in test [2] (Table 2) and in test [3] (Table 2) was 8 µg/mL (≈ 20.3 µM) each time.

In the case of `CCOc1cc(Cc2cnc(N)nc2N)cc(OCC)c1-c1ccc(SC)nc1` [Example 03-e, 5-[3,5-Diethoxy-4-(6-methylsulphanyl-pyridin-3-yl)-benzyl]-pyrimidine-2,4-diamine], the half-maximal inhibitory concentration (IC50) in test [1] (Table 2) came out at 80 nM; in test [4], 2100 nM. Further, the values for the MIC in test [2] (Table 2) and in test [3] (Table 2) were 8 µg/mL (≈ 19.4 µM) and 4 µg/mL (≈ 9.72 µM), respectively.

For `CCOc1cc(Cc2cnc(N)nc2N)cc(OCC)c1-c1ccc(C#N)cc1` [Example 04-a, 4′-(2,4-Diamino-pyrimidin-5-ylmethyl)-2′,6′-diethoxy-biphenyl-4-carbonitrile], the results for the half-inhibitory concentration (IC50) in test [1] (Table 2) and in test [4] were 82 nM and 2700 nM, respectively. In addition, the MIC came out at 8 µg/mL (≈ 20.5 µM) in test [2] (Table 2) and 4 µg/mL (≈ 10.3 µM) in test [3] (Table 2).

Take `CCOc1cc(Cc2cnc(N)nc2N)cc(OCC)c1-c1ccc(CN2CCCC2)c(F)c1` [Example 04-aa, 5-(2,6-Diethoxy-3′-fluoro-4′-pyrrolidin-1-ylmethyl-biphenyl-4-ylmethyl)-pyrimidine-2,4-diamine]: the results for the IC50 in test [1] (Table 2) and in test [4] were 330 nM and 1800 nM, respectively. The MIC in test [2] (Table 2) and in test [3] (Table 2) was 8 µg/mL (≈ 17.2 µM) throughout.

With `CCOc1cc(Cc2cnc(N)nc2N)cc(OCC)c1-c1ccc(NC)cc1` [Example 04-ab, 5-(2,6-Diethoxy-4′-methylamino-biphenyl-4-ylmethyl)-pyrimidine-2,4-diamine], the half-maximal inhibitory concentration (IC50) in test [1] (Table 2) amounted to 120 nM; in test [4] it was 1400 nM. Moreover, the MIC in test [2] (Table 2) was determined as 8 µg/mL (≈ 20.3 µM); in test [3] (Table 2), 4 µg/mL (≈ 10.2 µM).

On to `CCOc1cc(Cc2cnc(N)nc2N)cc(OCC)c1-c1ccc(CN(C)CCF)cc1` [Example 04-ac, 5-(2,6-Diethoxy-4′-{[N-(2-fluoro-ethyl)-N-methyl-amino]-methyl}-biphenyl-4-ylmethyl)-pyrimidine-2,4-diamine], for which the concentration for half-maximal inhibition (IC50) stood at 59 nM in test [1] (Table 2) and 450 nM in test [4]. The MIC is 8 µg/mL (≈ 17.6 µM) in test [2] (Table 2) and 4 µg/mL (≈ 8.82 µM) in test [3] (Table 2).

Regarding `CCOc1cc(Cc2cnc(N)nc2N)cc(OCC)c1-c1ccc(CN(C)CCF)c(F)c1` [Example 04-ad, 5-(2,6-Diethoxy-3′-fluoro-4′-{[N-(2-fluoro-ethyl)-N-methyl-amino]-methyl}-biphenyl-4-ylmethyl)-pyrimidine-2,4-diamine], the results for the half-inhibitory concentration (IC50) in test [1] (Table 2) and in test [4] were 170 nM and 2700 nM, respectively. The MIC in test [2] (Table 2) turned out to be 8 µg/mL (≈ 17 µM); in test [3] (Table 2), 4 µg/mL (≈ 8.48 µM).

`CCOc1cc(Cc2cnc(N)nc2N)cc(OCC)c1-c1cc(C)cc(N)c1` [Example 04-ae, 5-(5′-Amino-2,6-diethoxy-3′-methyl-biphenyl-4-ylmethyl)-pyrimidine-2,4-diamine]: the IC50 in test [1] (Table 2) was determined as 19 nM; in test [4], 1400 nM. Besides, the MIC in test [2] (Table 2) and in test [3] (Table 2) was 8 µg/mL (≈ 20.3 µM) each time.

With `CCOc1cc(Cc2cnc(N)nc2N)cc(OCC)c1-c1ccc(CNCCF)cc1` [Example 04-ag, 5-{2,6-Diethoxy-4′-[(2-fluoro-ethylamino)-methyl]-biphenyl-4-ylmethyl}-pyrimidine-2,4-diamine], the half-maximal inhibitory concentration (IC50) in test [1] (Table 2) was found to be 350 nM; in test [4], 1800 nM. The MIC in test [2] (Table 2) and in test [3] (Table 2) was 8 µg/mL (≈ 18.2 µM) throughout.

For the compound `CCOc1cc(Cc2cnc(N)nc2N)cc(OCC)c1-c1ccc(NS(C)(=O)=O)cc1` [Example 04-b, N-[4′-(2,4-Diamino-pyrimidin-5-ylmethyl)-2′,6′-diethoxy-biphenyl-4-yl]-methanesulphonamide], the concentration for half-maximal inhibition (IC50) came out at 36 nM in test [1] (Table 2) and 1700 nM in test [4]. The MIC in test [2] (Table 2) amounted to 8 µg/mL (≈ 17.5 µM); in test [3] (Table 2) it was 2 µg/mL (≈ 4.37 µM).

As for `CCOc1cc(Cc2cnc(N)nc2N)cc(OCC)c1-c1ccc(N)cc1` [Example 04-c, 5-(4′-Amino-2,6-diethoxy-biphenyl-4-ylmethyl)-pyrimidine-2 4-diamine], the IC50 in test [1] (Table 2) came out at 40 nM; in test [4], 700 nM. Moreover, the MIC in test [2] (Table 2) was determined as 8 µg/mL (≈ 21.1 µM); in test [3] (Table 2), 4 µg/mL (≈ 10.5 µM).

As for `CCOc1cc(Cc2cnc(N)nc2N)cc(OCC)c1-c1ccc(CN2CCOCC2)nc1` [Example 04-d, 5-[3,5-Diethoxy-4-(6-morpholin-4-ylmethyl-pyridin-3-yl)-benzyl]-pyrimidine-2,4-diamine], the figures for the IC50 in test [1] (Table 2) and in test [4] were 65 nM and 2100 nM, respectively. Besides, the MIC stood at 8 µg/mL (≈ 17.2 µM) in test [2] (Table 2) and 4 µg/mL (≈ 8.61 µM) in test [3] (Table 2).

Consider `CCOc1cc(Cc2cnc(N)nc2N)cc(OCC)c1-c1ccc(NC(C)=O)c(C)c1` [Example 04-e, N-[4′-(2,4-Diamino-pyrimidin-5-ylmethyl)-2′,6′-diethoxy-3-methyl-biphenyl-4yl]-acetamide], for which the IC50 in test [1] (Table 2) is 30 nM; in test [4], 1800 nM. Also, the MIC in test [2] (Table 2) was determined as 8 µg/mL (≈ 18.4 µM); in test [3] (Table 2) it was 4 µg/mL (≈ 9.18 µM).

`CCOc1cc(Cc2cnc(N)nc2N)cc(OCC)c1-c1ccc(N)c(C)c1` [Example 04-f, 5-(4′-Amino-2,6-diethoxy-3′-methyl-biphenyl-4ylmethyl)-pyximidine-2,4-diamine]: the IC50 in test [1] (Table 2) is 55 nM; in test [4] it was 1500 nM. The results for the MIC in test [2] (Table 2) and in test [3] (Table 2) were 4 µg/mL (≈ 10.2 µM) and 2 µg/mL (≈ 5.08 µM), respectively.
